Earlier results on one compound are cited in EP4360619A1, “DOSAGE FORM FOR INTRA-ARTICULAR INJECTION […] AN […] IN THE TREATMENT OF CRYSTAL-AND NON-CRYSTAL […] IN[…]” (PK MED, priority 2022, dated 2024).

The conditions of the data set: literature (E.Niel et al).

With `COc1cc2c(c(OC)c1OC)-c1ccc(OC)c(=O)cc1[C@@H](NC(C)=O)CC2` [colchicine, N-[(7S)-1,2,3,10-tetramethoxy-9-oxo-6,7-dihydro-5H-benzo[a]heptalen-7-yl]acetamide], the lethal dose is listed as 0.8 mg/kg and the toxicity limit was 0.1 mg/kg.
